ChEMBL document CHEMBL4308841, “Synthesis, in vitro antiproliferative activity, and kinase inhibitory effects of pyrazole-containing diarylureas and diarylamides” (Eur J Med Chem, 2018)

Experiments:
HL-60(TB) = experiment: Growth inhibition of human HL-60(TB) cells assessed as cell growth at 100 uM incubated for 48 hrs by sulforhodamine B assay relative to control; type: functional; details: HL-60, 48 h, read-out: Activity
OVCAR-5 = experiment: Growth inhibition of human OVCAR5 cells assessed as cell growth at 0.1 uM incubated for 48 hrs by sulforhodamine B assay relative to control; type: functional; details: OVCAR-5, 48 h, read-out: Activity
OVCAR-8 [1] = experiment: Growth inhibition of human OVCAR8 cells assessed as cell growth at 1 uM incubated for 48 hrs by sulforhodamine B assay relative to control; type: functional; details: OVCAR-8, 48 h, read-out: Activity
SK-MEL-5 = experiment: Growth inhibition of human SK-MEL-5 cells assessed as cell growth at 1 uM incubated for 48 hrs by sulforhodamine B assay relative to control; type: functional; details: SK-MEL-5, 48 h, read-out: Activity
M14 = experiment: Growth inhibition of human M14 cells assessed as cell growth at 0.01 uM incubated for 48 hrs by sulforhodamine B assay relative to control; type: functional; details: M14, 48 h, read-out: Activity
SNB-75 = experiment: Growth inhibition of human SNB75 cells assessed as cell growth at 100 uM incubated for 48 hrs by sulforhodamine B assay relative to control; type: functional; details: SNB-75, 48 h, read-out: Activity
NCI-H460 = experiment: Growth inhibition of human NCI-H460 cells assessed as cell growth at 1 uM incubated for 48 hrs by sulforhodamine B assay relative to control; type: functional; details: NCI-H460, 48 h, read-out: Activity
OVCAR-3 = experiment: Growth inhibition of human OVCAR3 cells assessed as cell growth at 1 uM incubated for 48 hrs by sulforhodamine B assay relative to control; type: functional; details: OVCAR-3, 48 h, read-out: Activity
OVCAR-8 [2] = experiment: Growth inhibition of human OVCAR8 cells assessed as cell growth at 100 uM incubated for 48 hrs by sulforhodamine B assay relative to control; type: functional; details: OVCAR-8, 48 h, read-out: Activity
HCT-116 = experiment: Growth inhibition of human HCT116 cells incubated for 48 hrs by sulforhodamine B assay; type: functional, cell-based; details: HCT-116, 48 h
NCI-H522 [3] = experiment: Growth inhibition of human NCI-H522 cells assessed as cell growth at 10 uM incubated for 48 hrs by sulforhodamine B assay relative to control; type: functional; details: NCI-H522, 48 h, read-out: Activity
T47D [4] = experiment: Growth inhibition of human T47D cells assessed as cell growth at 100 uM incubated for 48 hrs by sulforhodamine B assay relative to control; type: functional; details: read-out: Activity
SF-295 = experiment: Growth inhibition of human SF295 cells assessed as cell growth at 100 uM incubated for 48 hrs by sulforhodamine B assay relative to control; type: functional; details: SF-295, 48 h, read-out: Activity
COLO 205 [5] = experiment: Growth inhibition of human COLO205 cells assessed as cell growth at 1 uM incubated for 48 hrs by sulforhodamine B assay relative to control; type: functional; details: COLO 205, 48 h, read-out: Activity
SN12C = experiment: Growth inhibition of human SN12C cells incubated for 48 hrs by sulforhodamine B assay; type: functional, cell-based
KM12 = experiment: Growth inhibition of human KM12 cells assessed as cell growth at 100 uM incubated for 48 hrs by sulforhodamine B assay relative to control; type: functional; details: KM12, 48 h, read-out: Activity
NCI-H522 [6] = experiment: Growth inhibition of human NCI-H522 cells assessed as cell growth at 0.01 uM incubated for 48 hrs by sulforhodamine B assay relative to control; type: functional; details: NCI-H522, 48 h, read-out: Activity
NCI-H23 = experiment: Growth inhibition of human NCI-H23 cells assessed as cell growth at 100 uM incubated for 48 hrs by sulforhodamine B assay relative to control; type: functional; details: NCI-H23, 48 h, read-out: Activity
OVCAR-4 [7] = experiment: Growth inhibition of human OVCAR4 cells assessed as cell growth at 1 uM incubated for 48 hrs by sulforhodamine B assay relative to control; type: functional; details: OVCAR-4, 48 h, read-out: Activity
MCF7 = experiment: Growth inhibition of human MCF7 cells assessed as cell growth at 0.01 uM incubated for 48 hrs by sulforhodamine B assay relative to control; type: functional; details: MCF7, 48 h, read-out: Activity
OVCAR-8 [8] = experiment: Growth inhibition of human OVCAR8 cells assessed as cell growth at 0.1 uM incubated for 48 hrs by sulforhodamine B assay relative to control; type: functional; details: OVCAR-8, 48 h, read-out: Activity
HT-29 = experiment: Growth inhibition of human HT-29 cells assessed as cell growth at 1 uM incubated for 48 hrs by sulforhodamine B assay relative to control; type: functional; details: HT-29, 48 h, read-out: Activity
COLO 205 [9] = experiment: Growth inhibition of human COLO205 cells assessed as cell growth at 100 uM incubated for 48 hrs by sulforhodamine B assay relative to control; type: functional; details: COLO 205, 48 h, read-out: Activity
SNB-19 = experiment: Growth inhibition of human SNB19 cells assessed as cell growth at 0.1 uM incubated for 48 hrs by sulforhodamine B assay relative to control; type: functional; details: SNB-19, 48 h, read-out: Activity
K562 = experiment: Growth inhibition of human K562 cells assessed as cell growth at 0.1 uM incubated for 48 hrs by sulforhodamine B assay relative to control; type: functional; details: K562, 48 h, read-out: Activity
SK-OV-3 = experiment: Growth inhibition of human SKOV3 cells assessed as cell growth at 1 uM incubated for 48 hrs by sulforhodamine B assay relative to control; type: functional; details: SK-OV-3, 48 h, read-out: Activity
NCI-H226 = experiment: Growth inhibition of human NCI-H226 cells assessed as cell growth at 0.1 uM incubated for 48 hrs by sulforhodamine B assay relative to control; type: functional; details: NCI-H226, 48 h, read-out: Activity
HOP-62 = experiment: Growth inhibition of human HOP62 cells assessed as cell growth at 0.01 uM incubated for 48 hrs by sulforhodamine B assay relative to control; type: functional; details: HOP-62, 48 h, read-out: Activity
OVCAR-4 [10] = experiment: Growth inhibition of human OVCAR4 cells incubated for 48 hrs by sulforhodamine B assay; type: functional, cell-based; details: OVCAR-4, 48 h
T47D [11] = experiment: Growth inhibition of human T47D cells assessed as cell growth at 1 uM incubated for 48 hrs by sulforhodamine B assay relative to control; type: functional; details: read-out: Activity
SR = experiment: Growth inhibition of human SR cells assessed as cell growth at 100 uM incubated for 48 hrs by sulforhodamine B assay relative to control; type: functional; details: read-out: Activity
SK-MEL-2 = experiment: Growth inhibition of human SK-MEL-2 cells assessed as cell growth at 0.01 uM incubated for 48 hrs by sulforhodamine B assay relative to control; type: functional; details: SK-MEL-2, 48 h, read-out: Activity
[12] = read-out: LC50 (the source's name)
[13] = read-out: pLC50 (the source's name) (converted)

COc1cc(Cl)cc(-c2nn(-c3cccc(NC(=O)Nc4ccc(Cl)c(C(F)(F)F)c4)c3)cc2-c2ccncc2)c1
growth at 100 µM (HL-60(TB)): -22%
growth at 0.1 µM (OVCAR-5): 73%
growth at 1 µM (OVCAR-8 [1]): 43%
growth at 1 µM (SK-MEL-5): 83%
growth at 0.01 µM (M14): 97%
growth at 100 µM (SNB-75): -38%
growth at 1 µM (NCI-H460): 43%
growth at 1 µM (OVCAR-3): 24%
growth at 100 µM (OVCAR-8 [2]): -33%
IC50 (HCT-116): 0.63 µM
GI50 (HCT-116; read-out: GI50): 0.631 µM
CC50 (HCT-116; [12]): 7.3 µM
TGI (HCT-116; read-out: TGI): 23.6 µM
GI50 (HCT-116; read-out: pGI50 (converted)): 0.631 µM
CC50 (HCT-116; [13]): 7.24 µM
TGI (HCT-116; read-out: pTGI (converted)): 2.34 µM
growth at 10 µM (NCI-H522 [3]): -10.4%
growth at 100 µM (T47D [4]): -18%
growth at 100 µM (SF-295): -82%
growth at 1 µM (COLO 205 [5]): 80%
GI50 (SN12C; read-out: GI50): 1.56 µM
LC50 (SN12C; read-out: LC50): > 100 µM
TGI (SN12C; read-out: TGI): 82.1 µM
GI50 (SN12C; read-out: pGI50 (converted)): 1.55 µM
LC50 (SN12C; read-out: pLC50 (converted)): > 100 µM
TGI (SN12C; read-out: pTGI (converted)): 8.13 µM
growth at 100 µM (KM12): -70%
growth at 0.01 µM (NCI-H522 [6]): 93%
growth at 100 µM (NCI-H23): -50%
growth at 1 µM (OVCAR-4 [7]): 62%
growth at 0.01 µM (MCF7): 90%
growth at 0.1 µM (OVCAR-8 [8]): 96%
growth at 1 µM (HT-29): 55%
growth at 100 µM (COLO 205 [9]): -79%
growth at 0.1 µM (SNB-19): 95%
growth at 0.1 µM (K562): 91%
growth at 1 µM (SK-OV-3): 100%
growth at 0.1 µM (NCI-H226): 96%
growth at 0.01 µM (HOP-62): 100%
GI50 (OVCAR-4 [10]; read-out: GI50): 1.53 µM
CC50 (OVCAR-4 [10]; [12]): > 100 µM
TGI (OVCAR-4 [10]; read-out: TGI): 25.5 µM
GI50 (OVCAR-4 [10]; read-out: pGI50 (converted)): 1.82 µM
CC50 (OVCAR-4 [10]; [13]): > 100 µM
TGI (OVCAR-4 [10]; read-out: pTGI (converted)): 2.63 µM
growth at 1 µM (T47D [11]): 58%
growth at 100 µM (SR): -30%
growth at 0.01 µM (SK-MEL-2): 102%

O=C(Nc1cccc(-n2cc(-c3ccncc3)c(-c3cc(O)cc(Cl)c3)n2)c1)Nc1ccc(Cl)c(C(F)(F)F)c1
growth at 100 µM (HL-60(TB)): -15%
growth at 0.1 µM (OVCAR-5): 91%
growth at 1 µM (OVCAR-8 [1]): 99%
growth at 1 µM (SK-MEL-5): 90%
growth at 0.01 µM (M14): 97%
growth at 100 µM (SNB-75): -41%
growth at 1 µM (NCI-H460): 96%
growth at 1 µM (OVCAR-3): 91%
growth at 100 µM (OVCAR-8 [2]): -52%
IC50 (HCT-116): 1.96 µM
GI50 (HCT-116; read-out: GI50): 1.96 µM
CC50 (HCT-116; [12]): 10.7 µM
TGI (HCT-116; read-out: TGI): 44.7 µM
GI50 (HCT-116; read-out: pGI50 (converted)): 1.95 µM
CC50 (HCT-116; [13]): 10.7 µM
TGI (HCT-116; read-out: pTGI (converted)): 4.47 µM
growth at 10 µM (NCI-H522 [3]): -16%
growth at 100 µM (T47D [4]): -52%
growth at 100 µM (SF-295): -80%
growth at 1 µM (COLO 205 [5]): 99%
GI50 (SN12C; read-out: GI50): 3.44 µM
LC50 (SN12C; read-out: LC50): > 100 µM
TGI (SN12C; read-out: TGI): 17.2 µM
GI50 (SN12C; read-out: pGI50 (converted)): 3.55 µM
LC50 (SN12C; read-out: pLC50 (converted)): > 100 µM
TGI (SN12C; read-out: pTGI (converted)): 17 µM
growth at 100 µM (KM12): -74%
growth at 0.01 µM (NCI-H522 [6]): 56%
growth at 100 µM (NCI-H23): -55%
growth at 1 µM (OVCAR-4 [7]): 105%
growth at 0.01 µM (MCF7): 90%
growth at 0.1 µM (OVCAR-8 [8]): 100%
growth at 1 µM (HT-29): 99%
growth at 100 µM (COLO 205 [9]): -77%
growth at 0.1 µM (SNB-19): 95%
growth at 0.1 µM (K562): 94%
growth at 1 µM (SK-OV-3): 107%
growth at 0.1 µM (NCI-H226): 95%
growth at 0.01 µM (HOP-62): 99%
GI50 (OVCAR-4 [10]; read-out: GI50): 3.21 µM
CC50 (OVCAR-4 [10]; [12]): > 100 µM
TGI (OVCAR-4 [10]; read-out: TGI): 92.3 µM
GI50 (OVCAR-4 [10]; read-out: pGI50 (converted)): 3.24 µM
CC50 (OVCAR-4 [10]; [13]): > 100 µM
TGI (OVCAR-4 [10]; read-out: pTGI (converted)): 9.33 µM
growth at 1 µM (T47D [11]): 53%
growth at 100 µM (SR): -40%
growth at 0.01 µM (SK-MEL-2): 99%
